Data as given in PubChem BioAssay (NCI).
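In this assay, cells in 96-well plates receive the compound at five concentrations for 48 hours. Endpoints are linearly interpolated between the surrounding concentrations. TGI is the concentration that stops growth completely.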

Tests used:
Experiment in all cases: NCI anticancer screen, dose series, 48 h
A549 NSCLC = tested on: A549 NSCLC
CAKI-1 renal = tested on: CAKI-1 renal
K-562 leukemia = tested on: K-562 leukemia
KM12 colon = tested on: KM12 colon
SF-268 CNS = tested on: SF-268 CNS
SK-MEL-28 melanoma = tested on: SK-MEL-28 melanoma
SK-MEL-5 melanoma = tested on: SK-MEL-5 melanoma
SW-620 colon = tested on: SW-620 colon
ACHN renal = tested on: ACHN renal
SR leukemia = tested on: SR leukemia

Row | SMILES | TGI (A549 NSCLC) [µM] | TGI (CAKI-1 renal) [µM] | TGI (K-562 leukemia) [µM] | TGI (KM12 colon) [µM] | TGI (SF-268 CNS) [µM] | TGI (SK-MEL-28 melanoma) [µM] | TGI (SK-MEL-5 melanoma) [µM] | TGI (SW-620 colon) [µM] | TGI (ACHN renal) [µM] | TGI (SR leukemia) [µM]
1 | COc1cc(C2c3cc4c(cc3[C@@H](Nc3cccc(CO)c3)C3COC(=O)[C@H]23)OCO4)cc(OC)c1O (some centres undefined) | 1.96 | 1.91 | 5.87 | 6.67 | 14.5 | 22.7 | 2.28 | > 41.3 |  | 
2 | C=CCN1/C(=C(\C#N)c2nc3ccccc3[nH]2)Sc2c1nc[nH]c2=O | > 100 | > 100 | > 100 | > 100 | > 100 | > 100 | > 100 | > 100 | > 100 | > 100
3 | Cc1[nH]c(=O)[nH]c(=O)c1/C=C/C(=O)O (tested in a mixture with another compound) | > 625 | > 625 | > 625 | > 625 | > 625 | > 625 | > 625 | > 625 |  | 
4 | CC(CC(N)C(=O)O)C(=O)O (centres undefined) | > 100 | > 100 | > 100 | > 100 | > 100 | > 100 | > 100 | > 100 | > 100 | > 100
5 | CCC(C)C(N)C(=O)NC(CC(N)=O)C(=O)NC(CC(C)C)C(=O)NC(CCCCN)C(=O)NC(C)C(=O)NC(CC(C)C)C(=O)NC(C)C(=O)NC(C)C(=O)NC(CC(C)C)C(=O)NC(C)C(=O)NC(CCCCN)C(=O)NC(CCCCN)C(=O)NC(C(=O)NC(CC(C)C)C(N)=O)C(C)CC (centres undefined) | 24.9 | 22.5 | 36.3 | 29.5 | 14.7 | 22 | 14.3 | 37.4 | 27.2 | 46.1
6 | COc1nc2cccc(C(O)c3ccccc3)c2nc1-c1ccccc1 (centres undefined) | 54.5 | 63.8 | 19.7 | > 100 | 33.4 | > 100 | 13.1 | 16.6 | 72.9 | 12.4
7 | OCC1COc2cc(Cl)c(Cl)cc2O1 (centres undefined) | > 10 | > 10 | > 10 | > 10 | > 10 | > 10 | > 10 | > 10 | > 10 | > 10
8 | COc1cc2c3cc1Oc1c(O)c(OC)cc4c1C(Cc1ccc(O)c(c1)Oc1ccc(cc1)CC3N(C)CC2)N(C)CC4 (centres undefined) | 31.4 | 32.4 | 10.3 | 23.6 | 31.9 | 32.8 | 32.9 | 16.7 | 33.7 | 
9 | N#CC(N=Nc1ccccc1C(=O)O)C(N)=O (centres undefined) | > 100 | > 100 | > 100 | > 100 |  | > 100 | > 100 | > 100 | > 100 | > 100
10 | Cc1cccc(Br)[n+]1[O-] | > 100 | > 100 | > 100 | > 100 | > 100 | > 100 | > 100 | > 100 | > 100 | > 100
11 | Cc1c[n+]2c3ccccc3c3ccccc3c2s1 | > 100 | 31.5 | 44.5 | 9.4 | 3.27 | 18 | 17.9 | > 75.5 | > 100 | 32.3
